Laboratory results as given in patent US20050282818A1, “Ubiquitin ligase inhibitors” (Rigel Pharmaceuticals, Inc., priority 2004, published 2005).

Target: T1, TRAF6/Uev1A/Ubc13 (Homo sapiens, UniProt Q9Y4K3)
T1 sequence (Q9Y4K3 1-522): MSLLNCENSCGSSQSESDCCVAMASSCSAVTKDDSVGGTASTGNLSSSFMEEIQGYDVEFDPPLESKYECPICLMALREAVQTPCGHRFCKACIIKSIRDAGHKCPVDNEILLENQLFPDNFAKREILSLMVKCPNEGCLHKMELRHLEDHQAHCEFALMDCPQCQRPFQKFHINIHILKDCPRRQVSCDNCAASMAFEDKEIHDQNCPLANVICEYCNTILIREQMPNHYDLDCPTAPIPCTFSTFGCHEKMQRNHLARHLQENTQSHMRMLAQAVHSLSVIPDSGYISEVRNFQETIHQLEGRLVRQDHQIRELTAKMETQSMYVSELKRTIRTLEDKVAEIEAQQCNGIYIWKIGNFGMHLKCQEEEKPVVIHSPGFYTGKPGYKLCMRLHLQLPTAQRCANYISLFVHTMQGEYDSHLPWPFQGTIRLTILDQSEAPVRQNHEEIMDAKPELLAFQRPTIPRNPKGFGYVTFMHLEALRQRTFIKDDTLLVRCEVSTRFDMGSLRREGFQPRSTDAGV
Assay: TRAF6/Uev1A/Ubc13 plate-based ubiquitin ligase assay
Format: biochemical
Experimental: For the assays described below, the TRAF6/Uev1A/UBC13 assay is the biochemical plate-based assay of TRAF6 ligase activity using Ubc13 as the E2 enzyme. The gel-based assay is the biochemical solution-based TRAF6 ligase assay (by SDS-PAGE and Western blot) to confirm the plate-based ELISA assay. The APC assay is an assay which is another E3 ligase (APC2/APC11) biochemical assay.
A 96-well Ni-plate was blocked with 100 μl of 1% casein in PBS for 1 hour at room temperature. The plates were then washed three times with 200 μl of 1×PBS and 80 μl of a reaction buffer was added per well which contained 50 ng of Flag-ubiquitin, 50 ng of His-ubiquitin, 62.5 mM Tris pH 7.5, 6.25 mM MgCl2, 1.0 mM DTT, and 2 μM ATP. To each well was added 10 μl of a solution of the compound in DMSO. The reaction was started by adding 10 μl of a solution consisting of 10 ng human E1, 25 ng each of Uev1a and Ubc13, and 100 ng TRAF6 in the reaction buffer. The plates were shaken for 10 minutes and incubate at room temperature for 1 hour. After the incubation, the plates were washed three times with 200 μl 1×PBS in 0.05% Tween and 100 μl of an antibody mix consisting of anti-Flag (1:30,000 dilution; Sigma F-3165) and anti-Mouse IgG-HRP (1/150,000 dilution; Jackson Immunoresearch #115-035-146) in 1×PBS with 0.25% BSA. The plates were then incubated for another 1 hour at room temperature, and after incubation the plate was washed three times with 200 μl 1×PBS with 0.05% Tween. The amount of ubiquitin was measured by adding 100 μl of Lumino substrate (1:5 dilution) and reading the luminescence with a fluorimeter.
Table 2 below illustrates the inhibitory activity of the compounds of the invention determined by the TRAF6/Uev1A/Ubc13 assay as well as in the ICAM, APC and the ROC1/CUL1 Ubiquitin Ligase Assay (SCF Assay). The IC50 values were determined using a various concentrations of the compounds.

IC50 [µM] | Structure (SMILES)
≥ 20 | O=S(=O)(Nc1cccc2nonc12)c1ccc(Oc2ccc3c(C(F)(F)F)cc(C(F)(F)F)nc3n2)cc1 [compound 81, N-2,1,3-benzoxadiazol-4-yl-4-{[5,7-bis(trifluoromethyl)-1,8-naphthyridin-2-yl]oxy}benzenesulfonamide]
≥ 20 | O=S(=O)(Nc1cccc2nsnc12)c1ccc(Oc2ccc(C(F)(F)F)cc2Cl)nc1 [compound 117, N-2,1,3-benzothiadiazol-4-yl-6-[2-chloro-4-(trifluoromethyl)phenoxy]pyridine-3-sulfonamide]
1 to 20 | O=[N+]([O-])c1ccc(N2CCN(c3ccc([N+](=O)[O-])c4nonc34)CC2)cc1 [compound 147, 4-nitro-7-[4-(4-nitrophenyl)piperazin-1-yl]-2,1,3-benzoxadiazole]
≥ 20 | CCOc1ccc2nc(NS(=O)(=O)c3ccc(Cl)c4nonc34)sc2c1 [compound 198, 7-chloro-N-(6-ethoxy-1,3-benzothiazol-2-yl)-2,1,3-benzoxadiazole-4-sulfonamide]
≥ 20 | O=S(=O)(c1cccc2nsnc12)N1CCC(Oc2ccccc2C(F)(F)F)CC1 [compound 240, 4-({4-[2-(trifluoromethyl)phenoxy]piperidin-1-yl}sulfonyl)-2,1,3-benzothiadiazole]
≥ 20 | CC1(C)CCN(S(=O)(=O)c2ccc(Cl)c3nonc23)CC1 [compound 247, 4-chloro-7-[(4,4-dimethylpiperidin-1-yl)sulfonyl]-2,1,3-benzoxadiazole]
≥ 20 | COC(=O)c1ccc(NS(=O)(=O)c2ccc(Sc3ccc4ccccc4n3)c3nonc23)cc1 [compound 248, methyl 4-({[7-(quinolin-2-ylthio)-2,1,3-benzoxadiazol-4-yl]sulfonyl}amino)benzoate]
1 to 20 | O=S(=O)(c1ccc(Sc2ccc(O)cc2)c2nonc12)N1CCN(c2ccccc2)CC1 [compound 249, 4-({7-[(4-phenylpiperazin-1-yl)sulfonyl]-2,1,3-benzoxadiazol-4-yl}thio)phenol]
≥ 20 | COC(=O)c1ccc(NS(=O)(=O)c2ccc(N3CCSCC3)c3nonc23)cc1 [compound 250, methyl 4-{[(7-thiomorpholin-4-yl-2,1,3-benzoxadiazol-4-yl)sulfonyl]amino}benzoate]
≥ 20 | O=S(=O)(c1ccc(Sc2ccncc2)c2nonc12)N1CCN(c2ccccc2)CC1 [compound 251, 4-[(4-phenylpiperazin-1-yl)sulfonyl]-7-(pyridin-4-ylthio)-2,1,3-benzoxadiazole]
≥ 20 | O=S(=O)(c1ccc(Sc2ccc3ccccc3n2)c2nonc12)N1CCN(c2ccccc2)CC1 [compound 252, 2-({7-[(4-phenylpiperazin-1-yl)sulfonyl]-2,1,3-benzoxadiazol-4-yl}thio)quinoline]
1 to 20 | O=S(=O)(c1ccc(Sc2cccc3ccccc23)c2nonc12)N1CCN(c2ccccc2)CC1 [compound 253, 4-(1-naphthylthio)-7-[(4-phenylpiperazin-1-yl)sulfonyl]-2,1,3-benzoxadiazole]
≥ 20 | O=S(=O)(Nc1cccc(F)c1)c1ccc(F)c2nonc12 [compound 272, 7-fluoro-N-(3-fluorophenyl)-2,1,3-benzoxadiazole-4-sulfonamide]
≥ 20 | O=S(=O)(Nc1cccc(F)c1)c1ccc(Nc2cccc(F)c2)c2nonc12 [compound 273, N-(3-fluorophenyl)-7-[(3-fluorophenyl)amino]-2,1,3-benzoxadiazole-4-sulfonamide]
1 to 20 | Cc1cc(F)ccc1Nc1ccc(S(=O)(=O)Nc2ccc(F)cc2C)c2nonc12 [compound 275, N-(4-fluoro-2-methylphenyl)-7-[(4-fluoro-2-methylphenyl)amino]-2,1,3-benzoxadiazole-4-sulfonamide]
1 to 20 | Cc1cc(F)ccc1NS(=O)(=O)c1ccc(F)c2nonc12 [compound 276, 7-fluoro-N-(4-fluoro-2-methylphenyl)-2,1,3-benzoxadiazole-4-sulfonamide]
≥ 20 | COC(=O)c1ccc(NS(=O)(=O)c2ccc(Oc3cccc4cccnc34)c3nonc23)cc1 [compound 277, methyl 4-({[7-(quinolin-8-yloxy)-2,1,3-benzoxadiazol-4-yl]sulfonyl}amino)benzoate]
≥ 20 | FC(F)(F)c1cnc(N2CCN(c3ccc(N4CCOCC4)c4nonc34)CC2)c(Cl)c1 [compound 282, 4-{4-[3-chloro-5-(trifluoromethyl)pyridin-2-yl]piperazin-1-yl}-7-morpholin-4-yl-2,1,3-benzoxadiazole]
≥ 20 | O=[N+]([O-])c1ccc(S(=O)(=O)c2cccc3cccnc23)c2nonc12 [compound 290, 8-[(7-nitro-2,1,3-benzoxadiazol-4-yl)sulfonyl]quinoline]
≥ 20 | CCN(CC)c1cc(N2CCN(c3ccc(Cl)c(C(F)(F)F)c3)CC2)c2nonc2c1[N+](=O)[O-] [compound 292, 7-{4-[4-chloro-3-(trifluoromethyl)phenyl]piperazin-1-yl}-N,N-diethyl-4-nitro-2,1,3-benzoxadiazol-5-amine]
≥ 20 | CCN(CC)c1cc(N2CCN(c3ncc(C(F)(F)F)cc3Cl)CC2)c2nonc2c1[N+](=O)[O-] [compound 293, 7-{4-[3-chloro-5-(trifluoromethyl)pyridin-2-yl]piperazin-1-yl}-N,N-diethyl-4-nitro-2,1,3-benzoxadiazol-5-amine]
≥ 20 | CCN(CC)c1cc(N2CCN(c3ncccc3C#N)CC2)c2nonc2c1[N+](=O)[O-] [compound 294, 2-{4-[6-(diethylamino)-7-nitro-2,1,3-benzoxadiazol-4-yl]piperazin-1-yl}nicotinonitrile]
≥ 20 | O=[N+]([O-])c1c(N2CCCCC2)cc(N2CCN(c3ccc(Cl)c(C(F)(F)F)c3)CC2)c2nonc12 [compound 295, 7-{4-[4-chloro-3-(trifluoromethyl)phenyl]piperazin-1-yl}-4-nitro-5-piperidin-1-yl-2,1,3-benzoxadiazole]
1 to 20 | O=[N+]([O-])c1c(N2CCCCC2)cc(N2CCN(c3ncc(C(F)(F)F)cc3Cl)CC2)c2nonc12 [compound 296, 7-{4-[3-chloro-5-(trifluoromethyl)pyridin-2-yl]piperazin-1-yl}-4-nitro-5-piperidin-1-yl-2,1,3-benoxadiazole]
≥ 20 | N#Cc1cccnc1N1CCN(c2cc(N3CCCCC3)c([N+](=O)[O-])c3nonc23)CC1 [compound 297, 2-[4-(7-nitro-6-piperidin-1-yl-2,1,3-benzoxadiazol-4-yl)piperazin-1-yl]nicotinonitrile]
≥ 20 | CCN(CC)c1cc(N2CCC3(CC2)OCc2ccccc23)c2nonc2c1[N+](=O)[O-] [compound 298, N,N-diethyl-4-nitro-7-(1′H,3H-spiro[2-benzofuran-1,4′-piperidin]-1′-yl)-2,1,3-benzoxadiazol-5-amine]
≥ 20 | CCN(CC)c1cc(N2CCC(O)(c3ccccc3)CC2)c2nonc2c1[N+](=O)[O-] [compound 299, 1-[6-(diethylamino)-7-nitro-2,1,3-benzoxadiazol-4-yl]-4-phenylpiperidin-4-ol]

Structure (SMILES) | IC50 [µM]
O=[N+]([O-])c1ccc(N2CCSCC2)c2nonc12 [compound 237, 4-nitro-7-thiomorpholin-4-yl-2,1,3-benzoxadiazole] | ≥ 20
O=[N+]([O-])c1ccc(N2CCC(S(=O)(=O)c3ccccn3)CC2)c2nonc12 [compound 289, 4-nitro-7-[4-(pyridin-2-ylsulfonyl)piperidin-1-yl]-2,1,3-benzoxadiazole] | ≥ 20
